Source: patent publication US20110006261A1, “USE OF AN OZONE/OXYGEN MIXTURE AS PRIMARY ANTICANCER THERAPY THROUGH INTRAPERITONEAL INSUFFLATION” (priority 2007, published 2011)
Several values for one entry are separate records, joined by “and”; a condition that tells them apart may be missing. Equal entries are not always repeated.

Legend:
[1] = inhaled, mice; cited from earlier work
[2] = tested on: auricular VX2 carcinoma; experiment: Therapy of auricular VX2 carcinoma in rabbits by intraperitoneal gas insufflation (survival, tumor clearance); format: in vivo, New Zealand White (NZW) rabbit
[3] = Adverse effects: intraabdominal pressure, body weight, clinical signs

O=[O+][O-] [ozone]
adverse effect grade (weight loss) [1]: grade II | weight loss [1]: up to 14%

O=O [O2, pure medical oxygen]
day of tumor clearance ([2]; day after tumor cell inoculation): 68 days and 85 days | mean survival time ([2]; observation period 90 days after tumor cell inoculation): 51 days | number of rabbits with tumor remission ([2]; until day 90): two | maximal drop of mean body weight ([3]; compared to mean body weight on day 14): 5.0%

medical ozone/oxygen (O3/O2) gas mixture
severe side effects (sustained body weight reduction, gas embolism, fever, diarrhea, peritonitis) ([3]; rabbit, in vivo): no severe side effects
